# Reference: patent US20240228474A1, “ANTIBACTERIAL COMPOUND” (DISCUVA LIMITED, priority 2021, published 2024)
# Key:
# [1] = test system: Escherichia coli (NCTC 13441); assay: MIC by broth microdilution (CLSI); assay type: cell-based; details: NCTC13441, planktonic bacteria, 20-24 hour incubation
# Description: (§1) Minimum Inhibitory Concentrations (MICs) versus Escherichia coli (NCTC 13441) and Klebsiella pneumoniae (NCTC 13438) (planktonic bacteria) were determined by the broth microdilution procedure in line with the guidelines of the Clinical and Laboratory Standards Institute (Clinical and Laboratory Standards Institute. Methods for Dilution Antimicrobial Susceptibility Tests for Bacteria That Grow Aerobically, Approved Standard-Eleventh Edition, CLSI document M07, 11 Jan. 2018). The broth dilution method involved a two-fold serial dilution of compounds in 96-well microtitre plates, giving a final concentration range of 0.39-200 μM and a maximum final concentration of 2% DMSO. The bacterial strains tested were Escherichia coli (NCTC 13441) and Klebsiella pneumoniae (NCTC 13438). Strains were grown in cation-adjusted Müller-Hinton broth or on Luria Bertani agar at 37° C. in an ambient atmosphere. The MIC (μM) was determined as the lowest concentration of compound that inhibits growth following a 20-24 hour incubation period.
# [2] = test system: Klebsiella pneumoniae (NCTC 13438); assay: MIC by broth microdilution (CLSI); assay type: cell-based; details: NCTC13438, planktonic bacteria, 20-24 hour incubation
# Description: as §1
# [3] = test system: E. coli UT189; assay: Further murine urinary tract infection study, intravenous infusion; assay type: in vivo; details: 96 h
# Description: Compound (I) was evaluated in further proof-of-concept studies in murine models for the treatment of a respiratory infection with Gram-negative bacteria of the order Enterobacterales, and a urinary tract infection with Gram-negative bacteria of the order Enterobacterales. Each dot, triangle or square indicator represents a single mouse. LOD refers to the limit of detection of the bacteria. […] Each of the proof-of-concept studies was carried out separately. By vehicle is meant pharmaceutically acceptable excipient or carrier. For the further proof-of-concept study for the treatment of a urinary tract infection with Enterobacterales, female C3H/HeN mice were infected with E. coli UT189. Twenty-four hours after infection (‘pre-treatment’ in FIGS. 6a-c), mice were either treated with a vehicle control (20% hydroxypropyl β cyclodextrin) containing no compound (I), or a vehicle (20% hydroxypropyl β cyclodextrin) containing compound (I), administered by intravenous infusion for 1 hour (QD) with a dose of 20 mg/kg of compound (I). For some mice who received vehicle containing compound (I), an additional 1-hour continuous intravenous infusion was administered 5 hours after the time at which the first administration begun (BID, 5 hrs apart). The once or twice daily administration was continued for three days. For QD, administration took place between 24 to 25 hours, 48 to 49 hours, and 72 to 73 hours after infection, and for BID, administration took place between 24 to 25 hours, 29 to 30 hours, 48 to 49 hours, 53 to 54 hours, 72 to 73 hours and 77 to 78 hours after infection.
# [4] = 1 h IV infusion 20 mg/kg BID (5 hrs apart) for three days
# [5] = 1 h IV infusion 20 mg/kg QD for three days
structure (smiles),measurement,setting,value
"Cc1cnccc1-c1[nH]c(N)nc1-c1ccc2c(c1)N(C(=O)C(C)(C)N)CCO2 [Compound (I), 2-amino-1-(6-(2-amino-5-(3-methylpyridin-4-yl)-1H-imidazol-4-yl)-2,3-dihydro-4H-benzo[b][1,4]oxazin-4-yl)-2-methylpropan-1-one]",MIC,[1],≤ 0.39 µM
same,MIC,[2],1.56 to 3.13 µM
same,reduction of bacterial burden in the bladder compared to vehicle,[3]; [4],5.84 log
same,reduction of bacterial burden in the kidney compared to vehicle,[3]; [4],4.3 log
same,reduction of bacterial burden in the urine compared to vehicle,[3]; [4],5.87 log
same,reduction of bacterial burden in the bladder compared to vehicle,[3]; [5],5.01 log
same,reduction of bacterial burden in the kidney compared to vehicle,[3]; [5],3.17 log
same,bacterial burden in the bladder at end of study,[3]; BID (5 hrs apart),below the limit of detection (LOD)
same,bacterial burden in the kidney at end of study,[3]; BID (5 hrs apart),below the limit of detection (LOD)
same,bacterial burden in the urine at end of study,[3]; BID (5 hrs apart),below the limit of detection (LOD)
same,bacterial burden in the bladder at end of study,[3]; QD,below the limit of detection (LOD)
same,bacterial burden in the urine at end of study,[3]; QD,below the limit of detection (LOD)
same,reduction of bacterial burden in the urine compared to vehicle,"[3]; female C3H/HeN mice, 1 h IV infusion 20 mg/kg QD for three days",4.86 log
